How the values were obtained:
[1] = test system: scopolamine induced deficit (dementia/amnesia) in mice; test: Scopolamine induced amnesia, single trial passive avoidance test; format: in vivo; settings: test compounds 20 μmol/kg orally, donepezil 10 mg/kg po; for % Learning ([2nd Trial − 1st trial/1st trial] × 100): scopolamine group 33.6, trained control 274.9; for change in vivo at 20 µmol/kg: Mus musculus, read-out: % Improvement in Learning (% Learning in treated gp − % Learning in Scopolamine gp)
Experimental: Single trial passive avoidance is widely used as experimental test to assess learning memory functions in rodents.
Passive Avoidance Test (in vivo): Study was conducted in adult Swiss male mice of 3-4 months (wt. 20-25 g) which were kept in standard housing condition with 12 h light and dark cycle. Food and water were available ad libitum. […] Passive avoidance test was studied by a computerized shuttle box (Columbus Instruments, Ohio, USA) provided with a software program PACS 30. The shuttle box comprises of two compartments, isolated by an automated door. […] Each mouse was placed in the bright compartment and on transfer into the dark compartment it was given an electric shock (0.5 mA for 5 s) through floor grid. Transfer of mice from bright to dark compartment was recorded as transfer latency time (TLT) in seconds. TLT was recorded in control and treated groups (1st Trial, acquisition) and then after 24 hours (2nd Trial, retention). An increase in the TLT on 2nd Trial (retention) as compared to 1st Trial (acquisition) was taken as the criterion for successful learning and memory (cognitive activity).
Scopolamine induced deficit (Dementia): Scopolamine a muscarinic antagonist, known to produce impairment in cognitive functions (dementia) in human as well as in experimental animals, was used to produce deficit (no significant increase on 2nd trial) in passive avoidance learning. Scopolamine was administered 5 min prior to 1st trial. Reversal of scopolamine induced deficit i.e. significant increase in 2nd trial by test substance indicates potential anti-dementia activity. […].
Drug administration: Scopolamine was administered 5 min prior to 1st trial in test group. Each test compound was administered orally in dose of 20 μmol/kg (1% aq. suspension in gum acacia) 1 hour prior to 2nd trial in scopolamine treated mice (n=5). Scopolamine control group received 1 ml/kg of vehicle (1% aq. suspension in gum acacia) orally. […] Donepezil (10 mg/kg, po, as 1% aqueous suspension in gum acacia) was used as standard drug and given 1 hour prior to 2nd trial in scopolamine treated mice.
Statistical analysis: Mean values and standard error (S.E.) of mean were calculated for TLT and specific activity of AChE in the different regions of brain samples of each group. The significance of difference between the values of AChe activity and TLT between the groups was determined by one-way ANOVA test that followed by Dunnett's test.

AChE = molecular target: T1, AChE (Rattus norvegicus, UniProt P37136); test: Inhibitive effect on acetylcholinesterase activity (Ellman method, rat brain homogenate supernatant); format: biochemical; settings: for Cholinesterase Enzyme Activity in presence of active drug: control AChE activity 0.014446; for % Cholinesterase Enzyme Activity in presence of active drug: relative to control AChE activity
T1 construct: Aliquots of this supernatant was diluted in the ratio of 1:10 and used as a source of enzyme for the assay; from tissue; host or cells: whole brain of adult male SD rats; 10% homogenate with Triton X-100, 100,000 x g supernatant
T1 sequence (P37136 32-614): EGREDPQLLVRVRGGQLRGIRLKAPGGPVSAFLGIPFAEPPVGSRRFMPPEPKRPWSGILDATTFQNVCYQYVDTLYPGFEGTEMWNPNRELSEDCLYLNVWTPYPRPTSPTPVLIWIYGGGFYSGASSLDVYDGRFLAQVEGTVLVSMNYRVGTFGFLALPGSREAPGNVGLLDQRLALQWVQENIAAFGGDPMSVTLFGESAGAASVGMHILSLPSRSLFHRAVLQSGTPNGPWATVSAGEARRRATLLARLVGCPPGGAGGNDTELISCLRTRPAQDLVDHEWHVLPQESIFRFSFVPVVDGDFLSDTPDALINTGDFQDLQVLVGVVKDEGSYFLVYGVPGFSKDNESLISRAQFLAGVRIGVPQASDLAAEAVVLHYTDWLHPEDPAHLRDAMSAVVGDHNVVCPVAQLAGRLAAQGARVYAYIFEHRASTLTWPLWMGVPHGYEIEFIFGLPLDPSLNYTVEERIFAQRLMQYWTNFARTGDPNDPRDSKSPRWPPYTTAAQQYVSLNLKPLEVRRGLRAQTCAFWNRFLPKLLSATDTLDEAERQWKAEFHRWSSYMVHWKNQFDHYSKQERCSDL
Experimental: The study was conducted in adult SD male rats (200-250 g) Rats were perfused under mild ether anesthesia through heart with ice cooled normal saline (0.9% NaCl) to reduce blood-borne cholinesterase from brain. After perfusion whole brain was taken out. 10% (w/v) homogenate of brain was prepared first by homogenizing in Ultra-Turrax T25 homogenizer at a speed of 9500 rpm thrice giving intervals for few seconds in between the runs, with sodium phosphate buffer (30 mmol/lit, pH 7.0). Sodium phosphate buffer was taken in a volume half to the final volume required for 10% homogenate. 1% Triton X-100 (1% w/v in 30 mmol/lit. sodium phosphate buffer, pH 7.0) is then added in a volume to make the final volume for 10% homogenate, slowly while stirring the homogenate on ice.
Kinetic profile of the enzyme activity was studied spectrophotometrically at 412 nm at an interval of 15 s. Assay for each sample was run in duplicate and each experiment was performed thrice.
[…] Tacrine (1 μmol) was used as standard AChe inhibitor (standard control). The AChe inhibitory activity was calculated on the basis of % decrease change from control values i.e. AChe acivity without incubation with any standard or test drug.

[2] = scopolamine treated mice, 1 hour prior to 2nd trial

## CCCCCCNC(=O)Oc1ccc2c(c1)CCCN2Cc1ccccc1 [2h, Hexyl-carbamic acid 1-benzyl-1,2,3,4-tetrahydro-quinolin-6-yl ester]
[1]; [2]
  2nd TRIAL (retention, after 24 hours) transfer latency time (TLT): 205 s
[1]; scopolamine treated mice
  % Learning ([2nd Trial − 1st trial/1st trial] × 100): 122.8%
[1]
  % Improvement in Learning (% Learning in treated gp − % Learning in Scopolamine gp): 89.2%

## O=C(Nc1cccc(Br)c1)Oc1ccc2c(c1)CCCN2 [2c, (3-Bromo-phenyl)-carbamic acid 1,2,3,4-tetrahydro-quinolin-6-yl ester]
[1]; [2]
  2nd TRIAL (retention, after 24 hours) transfer latency time (TLT): 195 s
[1]; scopolamine treated mice
  % Learning ([2nd Trial − 1st trial/1st trial] × 100): 101%
[1]
  % Improvement in Learning (% Learning in treated gp − % Learning in Scopolamine gp): 67.4%

## O=C(Nc1ccccc1Cl)Oc1ccc2ncccc2c1 [1c]
[1]; [2]
  1st TRIAL (acquisition) transfer latency time (TLT): 89.6 s
  2nd TRIAL (retention, after 24 hours) transfer latency time (TLT): 230 s
[1]; scopolamine treated mice
  % Learning ([2nd Trial − 1st trial/1st trial] × 100): 156.7%
[1]
  % Improvement in Learning (% Learning in treated gp − % Learning in Scopolamine gp): 123.09%

## O=C(Nc1ccccc1Cl)Oc1ccc2c(c1)CCCN2Cc1ccccc1 [2i, (2-Chloro-phenyl)carbamic acid 1-benzyl-1,2,3,4-tetrahydro-quinolin-6 yl ester]
[1]; [2]
  2nd TRIAL (retention, after 24 hours) transfer latency time (TLT): 186.4 s
[1]; scopolamine treated mice
  % Learning ([2nd Trial − 1st trial/1st trial] × 100): 123.2%
[1]
  % Improvement in Learning (% Learning in treated gp − % Learning in Scopolamine gp): 89.6%
AChE; drug conc. 0.1 μm
  Cholinesterase Enzyme Activity in presence of active drug: 0.01351 μmol/mg of protein/min
  % Cholinesterase Enzyme Activity in presence of active drug: 93.54%
AChE; drug conc. 0.3 μm
  Cholinesterase Enzyme Activity in presence of active drug: 0.01211 μmol/mg of protein/min
  % Cholinesterase Enzyme Activity in presence of active drug: 83.87%
AChE; drug conc. 1 μm
  Cholinesterase Enzyme Activity in presence of active drug: 0.01071 μmol/mg of protein/min
  % Cholinesterase Enzyme Activity in presence of active drug: 74.19%
AChE; drug conc. 3 μm
  Cholinesterase Enzyme Activity in presence of active drug: 0.007456 μmol/mg of protein/min
AChE; drug conc. 10 μm
  Cholinesterase Enzyme Activity in presence of active drug: 0.001864 μmol/mg of protein/min
  % Cholinesterase Enzyme Activity in presence of active drug: 12.90%
AChE
  % Cholinesterase Enzyme Activity in presence of active drug: 51.61%

## CN1CCCc2cc(OC(=O)Nc3ccc(Cl)c(C(F)(F)F)c3)ccc21 [2q, (4-Chloro-3-trifluoromethyl-phenyl)-carbamic acid 1-methyl-1,2,3,4-tetrahydro-quinolin-6-yl ester]
[1]; scopolamine treated mice
  change in vivo at 20 µmol/kg: 76%
  % Learning ([2nd Trial − 1st trial/1st trial] × 100): 109%
[1]; [2]
  2nd TRIAL (retention, after 24 hours) transfer latency time (TLT): 218 s

## COc1cc2c(cc1OC)C(=O)C(CC1CCN(Cc3ccccc3)CC1)C2 (centres unmarked) [DONEPEZIL, donepezil, reference compound]
[1]; [2]
  2nd TRIAL (retention, after 24 hours) transfer latency time (TLT): 245 s
[1]; scopolamine treated mice
  % Learning ([2nd Trial − 1st trial/1st trial] × 100): 168%
[1]
  % Improvement in Learning (% Learning in treated gp − % Learning in Scopolamine gp): 134.4%

## CCCCCCCNC(=O)Oc1ccc2ncccc2c1 [1b, Heptyl-Carbamic Acid quinolin-6-yl ester]
[1]; [2]
  2nd TRIAL (retention, after 24 hours) transfer latency time (TLT): 238 s
[1]; scopolamine treated mice
  % Learning ([2nd Trial − 1st trial/1st trial] × 100): 140.4%
[1]
  % Improvement in Learning (% Learning in treated gp − % Learning in Scopolamine gp): 106.8%

## CN1CCCc2cc(OC(=O)Nc3ccc(Br)cc3)ccc21 [2r, (4-bromophenyl)carbamic acid 1-methyl-1,2,3,4-tetrahydroquinolin-6-yl ester]
[1]; scopolamine treated mice
  change in vivo at 20 µmol/kg: 62%
  % Learning ([2nd Trial − 1st trial/1st trial] × 100): 95.6%
[1]; [2]
  2nd TRIAL (retention, after 24 hours) transfer latency time (TLT): 242 s

Reference: US7655801B2, “Substituted carbamic acid quinolin-6-yl esters useful as acetylcholinesterase inhibitors” (priority 2004, dated 2010)
